Experimental data reported in patent publication US10117433B2 (priority 2011, dated 2018).
Where two headings read alike, the source gives them in different places.

How the values were obtained:
[1] = system: adult worker honeybees (Apismellifera); details: acute oral; cited from earlier work
[2] = system: adult worker honeybees (Apismellifera); details: acute contact; cited from earlier work
[3] = system: cereal aphid Sitobion avenae; details: in vivo
[4] = system: tomato moth (Lacanobia oleracea); type: in vivo
Method: Effect of Transgenic Arabidopsis Expressing Fusion Proteins when Fed to Tomato Moth (Lacanobia oleracea)
20 neonate Lacanobia oleracea larvae were placed in pots (4 replicates, 5 larvae per pot) and allowed to feed on detached leaves of transgenic Arabidopsis plants. Survival was measured over the course of a 14-day period and weights were measured at days 11 and 14. Assays were repeated giving a total sample number of 40. Treatments used were control, GNA-expressing, ButalT/GNA fusion protein expressing, and GNA/ButalT fusion protein expressing. Two independent lines expressing the ButalT/GNA fusion protein (lines 40 and 45) were used.

M. brassicae larvae [5] = system: M. brassicae larvae; parameters: species or system Mamestra brassicae; details: in vivo
M. brassicae larvae [6] = system: M. brassicae larvae; parameters: species or system Mamestra brassicae; details: in vivo; remark: listed apart in the source
[7] = system: adult worker honeybees (Apismellifera); details: in vivo, po
Honeybees = details: in vivo
[8] = system: central nerve chord of M. brassicae larvae; details: in vivo
M. brassicae larvae [9] = system: M. brassicae larvae; parameters: species or system Mamestra brassicae; details: in vivo; remark: listed apart in the source
M. brassicae larvae [10] = system: M. brassicae larvae; parameters: species or system Mamestra brassicae; details: in vivo; remark: listed apart in the source
[11] = system: cotton bollworm Heliothis armigera; details: in vivo; cited from earlier work
Heliothis virescens = details: in vivo; cited from earlier work
newborn mice = details: mouse, in vivo; cited from earlier work
[12] = system: vertebrate-muscle preparations; details: cited from earlier work

## C/C(=N\C#N)N(C)Cc1ccc(Cl)nc1 [Acetamiprid]
[1]
  reported LD50: 14.5 ug/bee
[2]
  reported LD50: 8.09 μg/bee

## Galanthus nivalis agglutinin [GNA]
[3]
  survival compared to control treatments: does not have a significant effect on the survival
[4]; first assay (FIG. 16), 14 days, ButalT/GNA line 40, GNA line 3, control 93%
  survival: 90%
[4]; neonate larvae, conclusions
  survival / larval mortality compared to controls: no effect on larval mortality
[4]; second assay, days 11 and 14, vs control
  reduction in mean weight: approx. 50%
M. brassicae larvae [5]
  effect upon larvae when injected: no effect
M. brassicae larvae [6]
  average weight of surviving larvae reduced by: 45%
  survival (larvae remained): 80%
[7]
  LD50: > 100 μg/bee
  LD50 to honeybees: greater than 100 ug/bee
  effects on mortality: smaller effects on mortality than acetamiprid
Honeybees
  toxicity by injection: higher toxicity than FP5
[8]
  bands in nerve tissue (anti-GNA Western blot): not observed
  presence in nerve chord and haemolymph samples (anti-GNA Western blot): positive immunoreactivity

## ω-ACTX-Hv1a
M. brassicae larvae [9]
  larval growth: no effect on larval growth
M. brassicae larvae [5]
  symptoms after injection of higher doses: displayed symptoms of paralysis
M. brassicae larvae [10]
  larval feeding / larval growth: no reduction in larval growth
M. brassicae larvae [10]; po
  oral activity: not orally active
[11]
  ED50: 3 nmol/g
Heliothis virescens
  PD50: 250 pmol/g
Newborn mice
  effect on newborn mice: harmless
[12]
  effect on vertebrate-muscle preparations: no effect
